Among the data in ChEMBL document CHEMBL5543110, “Engineering of a Biologically Active Glycosylated Glucagon-Like Peptide-1 Analogue” (J Med Chem, 2024) are Activity values, retold here.

Experiment [1] concerns Mus musculus. In words: Hypoglycemic activity in six hrs fasted C57BL6/J mouse assessed as reduction in blood glucose level at 30 nmol/kg, sc measured upto 120 mins post injection by glucometer analysis. The experiment is classed as functional, organism-based.
The target of experiment [2] is Glucagon-like peptide 1 receptor (Homo sapiens) (UniProt P43220). Briefly: Agonist activity human GLP-1R stably expressed in HEK293-A cells assessed as […] in cAMP accumulation incubated for 30 mins by fluorescence resonance energy transfer analysis. It is filed as functional, cell-based. To be noted: filed as agonist.
In experiment [3] the test system is Mus musculus. In words: Hypoglycemic activity in six hrs fasted C57BL6/J mouse assessed as improvement in glucose disposal at 30 nmol/kg, sc pre-administered with compound for 60 mins followed by glucose addition and measured upto 120 mins. It is filed as functional, organism-based. The settings on record: time <= 180.0 min.

Active and inactive are the calls of the source. The rule behind the calls is not given here.

Glucagon-like peptide 1 receptor (Homo sapiens), sequence (P43220 whole entry): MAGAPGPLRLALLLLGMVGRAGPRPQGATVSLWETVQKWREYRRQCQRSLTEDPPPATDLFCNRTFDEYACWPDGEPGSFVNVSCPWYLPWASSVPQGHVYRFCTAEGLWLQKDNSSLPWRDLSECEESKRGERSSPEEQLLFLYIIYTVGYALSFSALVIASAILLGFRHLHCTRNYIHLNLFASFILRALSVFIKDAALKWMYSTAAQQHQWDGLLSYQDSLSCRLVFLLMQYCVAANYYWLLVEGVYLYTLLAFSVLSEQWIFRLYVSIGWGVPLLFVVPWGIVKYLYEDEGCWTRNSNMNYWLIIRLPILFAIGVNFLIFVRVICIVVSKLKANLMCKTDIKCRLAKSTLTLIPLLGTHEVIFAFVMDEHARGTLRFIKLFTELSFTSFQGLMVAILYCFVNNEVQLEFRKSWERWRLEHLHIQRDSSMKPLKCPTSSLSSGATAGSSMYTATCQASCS

For the compound `CC[C@H](C)[C@H](NC(=O)[C@H](Cc1ccccc1)NC(=O)[C@H](CCC(=O)O)NC(=O)[C@H](CC(=O)N[C@@H]1O[C@H](CO)[C@@H](O[C@@H]2O[C@H](CO)[C@@H](O[C@@H]3O[C@H](CO[C@H]4O[C@H](CO)[C@@H](O)[C@H](O)[C@@H]4O[C@@H]4O[C@H](CO)[C@@H](O[C@@H]5O[C@H](CO[C@]6(C(=O)O)C[C@H](O)[C@@H](NC(C)=O)[C@H]([C@H](O)[C@H](O)CO)O6)[C@H](O)[C@H](O)[C@H]5O)[C@H](O)[C@H]4NC(C)=O)[C@@H](O)[C@H](O[C@@H]4O[C@H](CO)[C@H](O)[C@@H](O)[C@H]4O[C@@H]4O[C@H](CO)[C@@H](O[C@@H]5O[C@H](CO[C@]6(C(=O)O)C[C@H](O)[C@@H](NC(C)=O)[C@H]([C@H](O)[C@H](O)CO)O6)[C@H](O)[C@H](O)[C@H]5O)[C@H](O)[C@H]4NC(C)=O)[C@@H]3O)[C@H](O)[C@H]2NC(C)=O)[C@H](O)[C@H]1NC(C)=O)NC(=O)[C@H](C)NC(=O)[C@H](C)NC(=O)[C@H](CCC(N)=O)NC(=O)CNC(=O)[C@H](CCC(=O)O)NC(=O)[C@H](CC(C)C)NC(=O)[C@H](Cc1ccc(O)cc1)NC(=O)[C@H](CO)NC(=O)[C@H](CO)NC(=O)[C@@H](NC(=O)[C@H](CC(=O)O)NC(=O)[C@H](CO)NC(=O)[C@@H](NC(=O)[C@H](Cc1ccccc1)NC(=O)[C@@H](NC(=O)CNC(=O)[C@H](CCC(=O)O)NC(=O)C(C)(C)NC(=O)[C@@H](N)Cc1c[nH]cn1)[C@@H](C)O)[C@@H](C)O)C(C)C)C(=O)N[C@@H](C)C(=O)N[C@@H](Cc1c[nH]c2ccccc12)C(=O)N[C@@H](CC(C)C)C(=O)N[C@H](C(=O)N[C@@H](CCCNC(=N)N)C(=O)NCC(=O)N[C@@H](CCCNC(=N)N)C(=O)NCC(=O)O)C(C)C`, the outcome (with Mus musculus [1]; in experiment [2]; in the experiment on Mus musculus [3]) was Active.
With SEMAGLUTIDE, in the experiment with Mus musculus [1], the outcome was Active.
